Entries after “also recorded” stand apart in the source; their conditions may differ. Read-outs that look alike come from different tables or passages of the source.
Columns and labels:
[1] = test system: IMQ-induced Psoriasis-Like Skin lesions; experiment: IMQ-induced psoriasis-like skin lesions; format: in vivo, mice; conditions: dorsal skin, IMQ-induced psoriasis mice
Experimental: Mice were divided into control, psoriasis and psoriasis plus treatment groups, (n=8 in each group). Psoriasis were induced by topical application of imiquimod cream (62.5 mg) on shaved dorsal skin for seven consecutive days. Vaseline was used in control group. There were four treatment groups: three doses of R-salbutamol (R-Sal) (0.5 mg, 1 mg, 2 mg/kg) and Dexamethasone (1 mg/kg) as positive control. All the treatments and same volume of saline (in control group) were administered orally. In some experiment, R-bambuterol (long-last beta2 agonist) was used as an additional treatment group (n=3). Psoriasis Area Severity Index were used for evaluation. Each of the scores for erythema, scaling and skin thickness were measured separately and then group together as a calculative score. (FIG. 2)

[2] = test system: DSS induced sub-acute colitis; experiment: Prolonged (two weeks) treatment in DSS induced sub-acute colitis; format: in vivo, mice; conditions: evaluation at 23rd day, salbutamol 1 mg/kg, bambuterol 10 mg/kg
Description: Same as example 2, except. 1), Two Weeks Treatment within a Three Weeks of Study
DSS was removed from drinking water at the end of 1st week. The treatments were started at 1st day for consecutive 14 days (2 weeks). Only drinking water given for the 3rd week. The evaluation and examination were made at 23rd day as did in example 1.

TNBS-induced colitis = TNBS-induced colitis (model for Crohn's disease); format: in vivo, Male mice
Description: Male mice colitis was induced by rectal co-administration of ethanol and TNBS (Trinitrobenzenesulfonic acid). Severe colitis in mice that was characterized by weight loss and diarrhea. Histologically there were loss of normal structures, visible discrete epithelioid granuloma, multiple erosive lesions, massive transmural inflammation infiltration of lymphocytes, and the loss of goblet cells. […] There was significant alleviation of lesions, few inflammatory infiltration with growing crypts and recovery mucosa epithelia along the column. […] In addition, in TNBS treated colitis mice, there were perianal symptoms: erythema, abscesses and ulcers found in some mice, which may lead to perianal fissures or fistulas. […] The therapeutically effects of R-salbuterol, R-clenbuterol and R-bambuterol on the symptoms in TNBS induced Crohn's disease has never been reported in prior art.

[3] = test system: DSS induced acute colitis; conditions: for colon histology (H&E), in words: Example 1, compared with untreated DSS mice; for Hist score (histological score): epithelium 0-4 plus infiltration 0-4; for Hist score (histological score) / Col Length (colon length): tenth day; for Hist score (histological score) / FOB (fecal occult blood) / Weight / DAI (disease active index) / Col Length (colon length): 1 mg/kg (R-B, S-B 10 mg/kg; RS-C 2 mg/kg); for Hist score (histological score) / FOB (fecal occult blood) / Weight / Col Length (colon length): mean ± SD; for FOB (fecal occult blood): grade 0, 2, 4; for FOB (fecal occult blood) / Weight / Col Length (colon length): i.g. daily 8 days; for DAI (disease active index): score 0 to 12, i.g. daily 8 days from 2nd day of DSS, n=5
Description: In one embodiment, IBD was induced in mice by add DSS into drink water for 7 days. […] (Cooper, S. et al., Clinic pathologic study of dextran sulfate sodium experimental murine colitis, Laboratory Investigation, vol. 69, no. 2, p. 238-249, 1993)
The mice were scarified at day 10th for anatomy and histology evaluations. […] Each of the above histological features was scored individually and added together which is then collectively expressed as “histological score”, for quantitative evaluation (Cooper, S. et al., above).
Male C57BL mice (8-10 weeks, 18-20 g) were grouped into control (drinking water only), DSS and DSS plus treatment groups (n=5). Acute colitis was induced by feeding mice with 2% (w/v) dextran sulfate sodium (DSS) (molecular mass 36-50 kDa) added to the drinking water given ad libitum for 7 days. At the end of seventh day, DSS was removed and animals received only drinking water for 2 days. The animals were euthanized for anatomical and histological examination at the tenth day after DSS ingestion.
R-salbutamol (R-S) (1 mg/kg, S-salbutamol (S-S) (1 mg/kg), R-terbutaline (R-T) (1 mg/kg), S-terbutaline (S-T) (1 mg/kg), R-bambuterol (10 mg/kg), S-bambuterol (S-B) (10 mg/kg), R-clenbuterol (R-C) (1 mg/kg), RS-clenbuterol (RS-C) (2 mg/kg) were administered i.g. daily, starting from the 2nd day of DSS induction for consecutive 8 days. Dexamethasone (Dex), 1 mg/kg) was used as a reference drug.
Evaluation of disease symptoms and histological changes Disease activity index (DAI): Animals were monitored daily for weight, water/food consumption, morbidity, stool consistency and fecal blood. […] The colon length was recorded as an indicator of inflammation. The entire colon was cut open longitudinally and gently flushed with sterile phosphate-buffered saline (PBS) to remove any traces of feces for pathology preparation. Colon segments were fixed in 10% neutral buffered formalin. Tissues were embedded in paraffin, sectioned, mounted on slides. H&E-stained paraffin section images were acquired. Pathological evaluation was conducted in a blinded manner.
Histological Score: the scores were given as follows: epithelium, 0=normal morphology, 1=loss of goblet cells, 2=loss of goblet cells in large areas, 3=loss of crypts, and 4=loss of crypts in large areas; and inflammation cells infiltration, 0=no infiltrate, 1=infiltrate around the crypt basis, 2=infiltrate reaching the muscularis mucosae, 3=extensive infiltration reaching the muscularis mucosae and thickening of the mucosa with abundant edema, and 4=infiltration of the submucosa. Data were presented as mean±the standard deviation (SD).

[4] = test system: knee joints (articular cartilage, meniscus); experiment: Damage of knee joints in DSS induced IBD mice; format: in vivo; conditions: compared with untreated DSS mice
Description: In one embodiment, in DSS induced IBD mice, there was also a damage of knee joints. The articular cartilage structure became thinner and partially destroyed. The chondrocytes were degenerated, decreased and clustered. The meniscuses were damaged and lost its structural integrity. In X-ray, the layer of articular cartilage was thinner and bone structure was decreased. […] The articular cartilage and bone structure increased toward normal.

[5] = test system: hemorrhoid inflammation symptoms; experiment: Hemorrhoid inflammation symptoms, oral or topical; format: in vivo; conditions: given either orally or topically
Description: These perianal pathological changes somewhat similar to hemorrhoid inflammation symptoms. […] This new used of beta2 agonists in treatment of hemorrhoid inflammation symptoms has never been disclosed in prior art.

[6] = test system: DSS induced sub-acute colitis; format: in vivo; set-up: DAI (disease active index) / FOB (fecal occult blood) / Hist score (histological score): scale not given here; Weight / Col Length (colon length): unit not given here
Description: This invention also disclosed the used of R-salbutamol for treatment of sub acute or chronic phases of IBD. In one embodiment, IBD was induced by DSS as mentioned above, along with the treatment of R-salbutamol, at day 7th, DSS was removed and replaced with drinking water for additional 2 weeks. The disease active index (DAI) of mice was examined and evaluated periodically. The mice were scarified for pathological and histological evaluations at day of 23rd. In DSS induce IBD mice, there were significant loss of weight and fecal occult blood at day 14th and 22nd. The overall condition of colitis was severe although there was slightly improvement comparing the day 7th. The colon-rector length was significant shortened, and histological score were significant higher from control. In mice with DSS induced colitis, there were significant mononuclear leucocytes infiltration, few newly grew crypts with architectural disarray, denegation of epithelia, mucosa aberrant. There was also deep mucosal lymphocytosis, destruction of lamina propria and sometimes, transmural inflammation.
Same as example 1, except • 1), Three weeks' study with one week treatment.
DSS and all the treatment was removed and replaced with drinking water at the end of 1st week. Mice were given drink water and food ad libitum for additional 2 weeks.

[7] = test system: acne, maliaria, hives and eczema; experiment: Topical use on acne, maliaria, hives and eczema; format: in vivo
psoriasis and eczema = experiment: Oral administration in rats, psoriasis and eczema; format: in vivo
[8] = one week treatment, evaluation at 23rd day, R-S, S-S 1 mg/kg, R-B, S-B 10 mg/kg
[9] = sub-acute or chronic DSS colitis, compared with untreated DSS mice

## CN(C)C(=O)Oc1cc(OC(=O)N(C)C)cc([C@@H](O)CNC(C)(C)C)c1 [R-B, R-bambuterol]
[1]
  histology of psoriasis skin lesions (HE): mostly recovered
[2]
  DAI, in words: return toward normal
  histological score, in words: return toward normal
TNBS-induced colitis; TNBS treated mice
  perianal manifestations (erythema, abscesses, ulcers): significantly alleviated
[3]
  colon histology (H&E), in words: greatly improved
  Hist score (histological score): 5 ± 0.5
  FOB (fecal occult blood): 1 ± 0.5
  Weight: 92 ± 3.3
  DAI (disease active index): 6
  Col Length (colon length): 7.2 ± 0.2^
[4]
  damage of articular cartilage, meniscus and bone structure of knee joints: significantly ameliorated
[5]
  hemorrhoid inflammation symptoms: significantly alleviated
[6]; [8]
  Col Length (colon length): 7.9 ± 0.3
  DAI (disease active index): 6
  FOB (fecal occult blood): 1.1 ± 0.5
  Hist score (histological score): 4 ± 1
  Weight: 112 ± 0.6
[6]; [9]
  DAI, in words: significantly improved
  histological index / histological score, in words: significantly improved; also recorded: significantly ameliorated
[6]; sub-acute or chronic DSS colitis, day 14th and 22nd, compared with untreated DSS mice
  fecal occult blood, in words: significantly reduced

## CC(C)(C)NC[C@H](O)c1cc(Cl)c(N)c(Cl)c1 [R-C, R-clenbuterol]
[7]
  symptoms of acne, maliaria, hives and eczema: significantly alleviated
TNBS-induced colitis; TNBS treated mice
  submucosa fibrosis and narrowing of intestinal lumen: not seen
TNBS-induced colitis; oral administration
  weight loss, diarrhea, colon length versus normal control mice: No significant different
TNBS-induced colitis; oral administration (R-enantiomers)
  disease condition of TNBS colitis, in words: great ameliorated
[3]
  colon histology (H&E), in words: greatly improved
  Hist score (histological score): 4.5 ± 0.5^
  FOB (fecal occult blood): 2 ± 0.5
  Weight: 89 ± 2.0
  DAI (disease active index): 5
  Col Length (colon length): 7 ± 0.7
Psoriasis and eczema
  psoriasis and eczema: significantly ameliorate
[5]
  hemorrhoid inflammation symptoms: significantly alleviated
[6]; [9]
  DAI, in words: significantly improved
  histological index / histological score, in words: significantly improved

## CC(C)(C)NC[C@H](O)c1cc(O)cc(O)c1 [R-T, R-terbutaline]
[7]
  symptoms of acne, maliaria, hives and eczema: significantly alleviated
[3]
  colon histology (H&E), in words: greatly improved
  Hist score (histological score): 6.0 ± 1^
  FOB (fecal occult blood): 2 ± 0
  Weight: 88 ± 1.7
  DAI (disease active index): 8
  Col Length (colon length): 6.6 ± 0.3
Psoriasis and eczema
  psoriasis and eczema: significantly ameliorate
[6]; [9]
  DAI, in words: significantly improved
  histological index / histological score, in words: significantly improved
